# Columns and labels:
# [1] = tested on: anti-Malachite Green antibodies; assay: competitive ELISA: sensitivity and specificity of the produced anti-Malachite Green antibodies; type: binding, rabbit; conditions: for Cross-reactivities / Sensitivity: competitive ELISA; for Cross-reactivities: Malachite Green = 100; for Sensitivity: produced anti-Malachite Green antibodies; for level detectable by the antibodies: competitive inhibition ELISA
# Experimental: In accordance with this embodiment, the diluted antiserum is added to a Malachite Green Chromatic conjugate-coated solid substrate such as the wells of an assay plate, together with a range of concentrations of free Malachite Green Chromatic as a competitor. Following incubation and washing, bound antibody in the wells is determined. Percent inhibition may be calculated as (1−B/B0)×100 where B is the optical density (OD) of a well with a competitor and B0 is the mean OD of the wells without competitor (control). […] However, for even greater accuracy, the affinity may be alternatively measured at 50% inhibition (IC50). […] Detection of bound antibody may be accomplished by addition of enzyme-labeled anti-immunoglobulin antibodies followed by enzyme substrate. Horseradish peroxidase and its substrate TMB are preferred enzyme/substrate labels. However, it is understood that other enzyme/substrate labels or non-enzyme labels such as radiolabels or chromophores may also be used.
# Two female New Zealand White Rabbits, 8 weeks old, were initially immunized by intraperitoneal injection with 0.2 mg of Malachite Green-KLH conjugate as prepared in EXAMPLE 1 mixed with complete Freund's adjuvant. Five booster immunizations were administered at 15-day intervals using the antigen. Blood was collected 7 to 10 days after the last booster immunization in order to check for antibody titers. Titers were checked using both indirect ELISA and competitive ELISA that employed Malachite Green Chromatic-BSA conjugate as the coating antigen and free Malachite Green Chromatic as competitor. […] A typical competitive ELISA procedure is described below: • (1). In the Malachite Green Chromatic-BSA coated 96-well plate, add 50 μL of negative control and each Malachite Green Chromatic standard (1, 5, 10, 25, 50, 100 ng/mL) in duplicate into different wells; add 50 μL of each sample in duplicate into different sample wells. • (2). Add 100 μL of diluted Malachite Green Antibody #1 and mix well by gently tapping the edge of the plate for 10 seconds. • (3). Incubate the plate for 30 min at 37° C. or 1 hr at room temperature (15-25° C.). • (4). Wash the plate 3 times with 250 μL 1×PBS. After the last wash, gently slap the plate dry on paper towels. • (5). Add 150 μL of HRP Goat-against Rabbit antibody conjugate solution. Incubate the plate for 30 min at 37° C. or 1 hr at room temperature (15-25° C.). • (6). Wash the plate 3 times with 250 μL 1×PBS. After the last wash, gently slap the plate dry on paper towels. • (7). Add 100 μL of TMB substrate. • (8). Time the reaction immediately after adding the substrate; mix the solution by gently tapping the edge of the plate. • (9). After incubating for 15 min at room temperature, add 100 μL of 1 M H2SO4 to stop the enzyme reaction before reading the plate at 450 nm.
# [2] = tested on: Leukomalachite Green antibody; conditions: Randox antibody raised against Leucomalachite Green immunogen; cited from earlier work
# [3] = in fish; cited from earlier work
Compound,Cross-reactivities [1] [%],Sensitivity [1],cross reactivity [2] [%],"test sensitivity ([1]; produced antibodies, Table 1 summary) [ppb]",converted into Leucomalachite Green [3] [%],level detectable by the antibodies [1] [ng/mL]
CN(C)c1ccc(C(c2ccc(N(C)C)cc2)c2ccc(N(C)C)cc2)cc1 [Leucocrystal Violet],<0.01,5000 ng/mL,–,–,–,–
O=C1OCCN1/N=C/c1ccc([N+](=O)[O-])o1 [Furazolidone],–,">10,000 ng/ml",–,–,–,–
CC(C)(C)NCC(O)c1cc(Cl)c(N)c(Cl)c1 (centres unmarked) [Clenbuterol],<0.01,">10,000 ng/ml",–,–,–,–
Cc1cc(C)nc(NS(=O)(=O)c2ccc(N)cc2)n1 [Sulfumethazine],<0.01,">10,000 ng/ml",–,–,–,–
CN(C)c1ccc(C(=C2C=CC(=[N+](C)C)C=C2)c2ccccc2)cc1 [Malachite Green],100,1 ng/mL,26.8,1,~80,–
O=C(N[C@H](CO)[C@H](O)c1ccc([N+](=O)[O-])cc1)C(Cl)Cl [Chloramphenicol],<0.01,">10,000 ng/ml",–,–,–,–
CN(C)c1ccc(C(c2ccccc2)c2ccc(N(C)C)cc2)cc1 [Leucomalachite Green],1,500 ng/mL,–,–,–,0.5
CN(C)c1ccc(C(O)(c2ccccc2)c2ccc(N(C)C)cc2)cc1 [Carbinol],–,–,–,–,–,0.5
CN(C)c1ccc(C(=C2C=CC(=[N+](C)C)C=C2)c2ccc(N(C)C)cc2)cc1 [Crystal Violet],42,10 ng/mL,–,–,–,–
